Measurements from the supplement of paper PMC8253809.

Columns and labels:
iAstro [1] = astrocyte control; experiment: EC50 (inflection of fitted growth-inhibition curve) (log10 M)
How it was run: (§1)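 Patient-derived pHGG/DIPG cell lines and astrocyte controls were grown on 1% Geltrex-coated 384-well plates and exposed by pin tool to a 10-point threefold dilution series (mean top concentration 35 μM), in triplicate. Exposure was 7 days (iAstro 3 days) at 37 °C, 5% CO2. CellTiter-Glo luminescence was log2-transformed, normalised per plate to % activity between negative (solvent) and positive control wells, and pooled. EC50 and maximal response (yFin) come from the lowest-AICc three- or four-parameter log-logistic fit.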

DIPGX29 = H3.3 K27M diffuse intrinsic pontine glioma line; experiment: as above
How it was run: as §1

HGGX42 = H3.3 G34R paediatric high-grade glioma line; experiment: as above
How it was run: as §1

SUDIPGXVII = diffuse intrinsic pontine glioma line; experiment: as above
How it was run: as §1

SUDIPGVI = diffuse intrinsic pontine glioma line; experiment: as above
How it was run: as §1

HGGX39 = paediatric high-grade glioma line; experiment: as above
How it was run: as §1

SUDIPGXXI = diffuse intrinsic pontine glioma line; experiment: as above
How it was run: as §1

SUDIPGXIX = diffuse intrinsic pontine glioma line; experiment: as above
How it was run: as §1

SUDIPGIV = diffuse intrinsic pontine glioma line; experiment: as above
How it was run: as §1

DIPGX9 = diffuse intrinsic pontine glioma line; experiment: as above
How it was run: as §1

DIPGX7 [2] = H3.3 K27M diffuse intrinsic pontine glioma line; experiment: as above
How it was run: as §1

HGGX2 = paediatric high-grade glioma line; experiment: as above
How it was run: as §1

HABS [3] = astrocyte control; experiment: as above
How it was run: as §1

HGGX6 = H3.3 G34R paediatric high-grade glioma line; experiment: as above
How it was run: as §1

SUDIPGXIII = diffuse intrinsic pontine glioma line; experiment: as above
How it was run: as §1

DIPGX37 = H3.3 K27M diffuse intrinsic pontine glioma line; experiment: as above
How it was run: as §1

iAstro [4] = experiment: maximal growth inhibition (yFin) relative to DMSO / staurosporine; higher = more efficacious
How it was run: as §1

DIPGX7 [5] = experiment: as above
How it was run: as §1

HABS [6] = experiment: as above
How it was run: as §1

SMILES | EC50 (log10 M) (iAstro [1]) | EC50 (log10 M) (DIPGX29) | EC50 (log10 M) (HGGX42) | EC50 (log10 M) (SUDIPGXVII) | EC50 (log10 M) (SUDIPGVI) | EC50 (log10 M) (HGGX39) | EC50 (log10 M) (SUDIPGXXI) | EC50 (log10 M) (SUDIPGXIX) | EC50 (log10 M) (SUDIPGIV) | EC50 (log10 M) (DIPGX9) | EC50 (log10 M) (DIPGX7 [2]) | EC50 (log10 M) (HGGX2) | EC50 (log10 M) (HABS [3]) | EC50 (log10 M) (HGGX6) | EC50 (log10 M) (SUDIPGXIII) | EC50 (log10 M) (DIPGX37) | maximal growth inhibition (iAstro [4]) [%] | maximal growth inhibition (DIPGX7 [5]) [%] | maximal growth inhibition (HABS [6]) [%]
CC(=O)c1cc([N+](=O)[O-])c(Sc2ccc(F)cc2F)s1 | -4.85 | -4.83 | -4.68 | -4.75 | -4.76 | -4.79 | -4.78 | -4.78 | -4.71 | -4.77 | -4.76 | -4.59 | -4.7 | -4.65 | -4.72 | -4.79 | 89.1 | 117 | 37.7
CC(C)(C)c1cnc(CSc2cnc(NC(=O)C3CCNCC3)s2)o1 | -6.22 | -6.2 | -6.48 | -6.08 | -6.37 | -6.02 | -6.91 | -6.11 | -6.15 | -6.71 | -5.84 | -6.28 | -6.64 | -5.8 | -5.95 | -6.21 | 27.2 | 113 | 45.9
CC(C)c1c2cc(-c3ccnc(NC4CCC(NC5CCOCC5)CC4)n3)ccc2nn1C (stereo not drawn) | -7.45 | -6.63 | -7.07 | -6.93 | -7 | -6.34 | -7.19 | -7.04 | -6.83 | -7.17 | -6.89 | -6.63 | -7.04 | -6.69 | -6.79 | -6.77 | 26.6 | 93.3 | 44.3
CC(C)c1cc(C(=O)N2Cc3ccc(CN4CCN(C)CC4)cc3C2)c(O)cc1O | -7.01 | -5.68 | -5.89 | -6.44 | -5.95 | -6.08 | -6.4 | -6.98 | -6.68 | -6.96 | -5.07 | -6.72 | -6.06 | -6.73 | -6.14 | -6.85 | 31.4 | 78.3 | 108
COc1cc(F)ccc1-c1ncnc(Nc2cccc(CS(C)(=N)=O)c2)n1 (stereo not drawn) | -6.51 | -5.41 | -6.01 | -5.15 | -5.33 | -5.23 | -5.99 | -5.55 | -5.38 | -5.9 | -5.15 | -5.75 | -5.83 | -5.44 | -4.98 | -5.68 | 24.7 | 110 | 56.8
Cc1ccc2nc(NCCN)c3ncc(C)n3c2c1 | -5.39 | -4.95 | -5 | -4.88 | -4.96 | -4.91 | -5.23 | -4.93 | -4.93 | -5.01 | -4.87 | -5.19 | -4.94 | -4.92 | -4.89 | -4.96 | 26.6 | 92.7 | 58.1
O=C(c1ccccc1)c1ccc2nc(NC(=O)c3csc(C4CCN(c5ncnc6ccsc56)CC4)n3)[nH]c2c1 | -5.2 | -5.26 | -5.14 | -5.91 | -5.46 | -5.87 | -5.2 | -4.95 | -5.86 | -5.03 | -5.45 | -5.06 | -5.18 | -5.19 | -5.72 | -5.87 | 64.8 | 89.8 | 35.8
c1ccc2c(-c3cnn4cc(-c5ccc(N6CCNCC6)cc5)cnc34)ccnc2c1 | -5.51 | -5.73 | -5.68 | -5.61 | -5.58 | -5.65 | -6.41 | -5.66 | -5.52 | -5.68 | -5.63 | -5.78 | -5.19 | -5.58 | -5.56 | -5.65 | 93.5 | 106 | 108
COc1ccc(C[C@H](NC(=O)[C@H](C)NC(=O)CN2CCOCC2)C(=O)N[C@@H](Cc2ccccc2)C(=O)C2(C)CO2)cc1 (stereo in doubt) [ONX-0914] | -7.31 | -6.14 | -6.73 | -5.91 | -6.72 | -6.36 | -7.49 | -6.58 | -6.84 | -6.6 | -6.25 | -7.17 | -6.19 | -5.97 | -6.56 | -6.53 | 73.5 | 97.5 | 94.2
CN(C)C/C=C/C(=O)Nc1cc2c(Nc3ccc(F)c(Cl)c3)ncnc2cc1O[C@H]1CCOC1 [AFATINIB] | -4.88 | -4.73 | -4.86 | -4.81 | -4.84 | -4.73 | -5.4 | -4.83 | -4.82 | -4.88 | -4.85 | -4.92 | -4.84 | -4.75 | -4.71 | -4.72 | 92.5 | 110 | 101
O=C(Nc1c[nH]nc1-c1nc2ccc(CN3CCOCC3)cc2[nH]1)NC1CC1 [AT9283] | -5.54 | -5.17 | -5.4 | -4.95 | -4.97 | -6.03 | -6.69 | -5.33 | -5.66 | -5.66 | -4.88 | -4.91 | -5.83 | -5.15 | -4.79 | -4.79 | 27.5 | 110 | 94
CC(=O)OC[C@H]1O[C@@H]([S-])[C@H](OC(C)=O)[C@@H](OC(C)=O)[C@@H]1OC(C)=O.CCP(CC)CC.[Au+] [AURANOFIN] | -5.84 | -6.49 | -6.16 | -5.45 | -5.76 | -5.52 | -6.66 | -5.93 | -5.57 | -5.78 | -5.9 | -6.28 | -5.29 | -6.35 | -5.39 | -6.41 | 106 | 119 | 113
